Data published in patent publication US12415844B2, “BCMA specific VCAR compositions and methods for use” (Poseida Therapeutics, Inc., priority 2017, dated 2025).
Where two headings read alike, the source gives them in different places.

What was measured:
cells [1] = test: AP1903 amount needed in vitro for effective signaling of cells; type: cell-based; details: equates to 10-100 nM
Protocol: The fixed dose of AP1903 for injection used, for example, may be 0.4 mg/kg intravenously infused over 2 hours. The amount of AP1903 needed in vitro for effective signaling of cells is 10-100 nM (1600 Da MW). This equates to […] or […]. Doses up to 1 mg/kg were well tolerated in the Phase I study of AP1903 described above. Therefore, 0.4 mg/kg may be a safe and effective dose of AP1903 for this Phase I study in combination with the therapeutic cells.

cells [2] = details: cited from earlier work
[3] = cited from earlier work

## CC[C@H](C(=O)N1CCCC[C@H]1C(=O)O[C@H](CCc1ccc(OC)c(OC)c1)c1cccc(OCC(=O)NCCNC(=O)COc2cccc([C@@H](CCc3ccc(OC)c(OC)c3)OC(=O)[C@@H]3CCCCN3C(=O)[C@@H](CC)c3cc(OC)c(OC)c(OC)c3)c2)c1)c1cc(OC)c(OC)c(OC)c1 (relative stereo) [AP1903, 2-Piperidinecarboxylic acid, 1-[(2S)-1-oxo-2-(3,4,5-trimethoxyphenyl)butyl]-, 1,2-ethanediylbis[imino(2-oxo-2,1-ethanediyl)oxy-3,1-phenylene[(1R)-3-(3,4-dimethoxyphenyl)propylidene]]ester, [2S-[1(R*),2R*[S*[S*[1(R*),2R*]]]]]-(9C1)]
Cells [1]
  amount needed for effective signaling, converted (1600 Da MW): 16 to 160 µg/L
Cells [2]
  amount needed in vitro for effective signaling of cells: 10 to 100 nM
[3]; 0.01-1.0 mg/kg
  plasma levels versus dose: directly proportional to dose
[3]; 0.5 hours post-dose
  plasma level as % of maximal concentration: approximately 18%
[3]; 2 hours post-dose
  plasma level as % of maximal concentration: ~7%
[3]; 10 hours post-dose
  plasma level as % of maximal concentration: ~1%
[3]; Phase I study
  well tolerated doses: up to 1 mg/kg
[3]; dose levels 0.01, 0.05, 0.1, 0.5 and 1.0 mg/kg IV over 2 hours
  safety and tolerability: safe and well tolerated at all dose levels
[3]; healthy volunteers
  pharmacokinetic profile: favorable pharmacokinetic profile
[3]; single doses 0.01-1.0 mg/kg infused IV over 2 hours, healthy volunteers, plasma
  mean Cmax: 10 to 1275 ng/mL
